Where no end group is shown, it is not given here.

Consider one sequence from patent publication US20080200393A1, “Method and Composition For Treating Angiogenesis and For Preventing Cancer Progression and Metastasis Comprising a Prostate Secretory Protein (Psp94) Family Member” (Ambrillia Biopharma Inc., priority 2004, published 2008).

One test deals with MMP-9. Description: Gelatin zymography of MatLyLu cell culture media. The test is classed as cell-based. The settings on record: MatLyLu cells, 500 ug/ml and 1 mg/ml, 50 ug/ml collagen type-I, serum free, 72 hrs. As for the experimental part: Zymography. Zymography is a technique generally used to analyze the activity of matrix metalloproteinases (MMPs) in biological samples. It involves the electrophoretic separation of proteins under denaturing (Sodium Dodecyl Sulfate (SDS)) but non-reducing conditions through a polyacrylamide gel containing gelatin (for example, 10% gel containing 1 mg/ml gelatin for MMP-9 and MMP-2 assays). The resolved proteins are re-natured by exchanging SDS with a non-ionic detergent such as Triton X-100 and the gel is incubated in an incubation buffer for activation of MMP-2 and MMP-9 (for example at 37° C. for 18 hrs). The gel is stained with Coomassie blue and the MMP-2 and MMP-9 bands may be visualized as clear bands against a blue background (i.e., the MMPs degrade the gelatin and are visualized as clear bands; pro MMP-2 is 68 kDa and pro-MMP-9 is 92 kDa). These bands can be quantified using densitometry. For example, prior to stimulation, quiescent HUVEC were serum-starved for 16 h in the presence or absence of PCK3145 or PD98059 and then stimulated with VEGF. […] Gelatinolytic activity was detected as unstained bands on a blue background. […]
The media were collected after 72 hours of exposure to the PCK3145 derivative and subjected to gelatin zymography. […] The band intensities were determined using the Image Quant software (version 5.0) from molecular Dynamics. […]

Another test deals with proMMP-2. Description: Gelatin zymography of HUVEC conditioned media. The class given is cell-based, Human. The procedure:
Zymography. Zymography is a technique generally used to analyze the activity of matrix metalloproteinases (MMPs) in biological samples. It involves the electrophoretic separation of proteins under denaturing (Sodium Dodecyl Sulfate (SDS)) but non-reducing conditions through a polyacrylamide gel containing gelatin (for example, 10% gel containing 1 mg/ml gelatin for MMP-9 and MMP-2 assays). The resolved proteins are re-natured by exchanging SDS with a non-ionic detergent such as Triton X-100 and the gel is incubated in an incubation buffer for activation of MMP-2 and MMP-9 (for example at 37° C. for 18 hrs). The gel is stained with Coomassie blue and the MMP-2 and MMP-9 bands may be visualized as clear bands against a blue background (i.e., the MMPs degrade the gelatin and are visualized as clear bands; pro MMP-2 is 68 kDa and pro-MMP-9 is 92 kDa). These bands can be quantified using densitometry. For example, prior to stimulation, quiescent HUVEC were serum-starved for 16 h in the presence or absence of PCK3145 or PD98059 and then stimulated with VEGF. The conditioned media were collected 24 h after stimulation, and clarified by centrifugation. Identical volume of conditioned media were mixed with non reducing Laemmli sample buffer and subjected to 7.5% SDS-polyacrylamide gels containing 1 mg/ml gelatin (Sigma). The gels were then incubated for 30 min at room temperature twice in 2.5% (v/v) Triton X-100 and rinsed five times in doubly distilled water. The gels were incubated at 37° C. for a further 18 h in 200 mM NaCl/5 mM CaCl2/0.02% (v/v) Brij-35/50 mM Tris/HCl buffer (pH 7.6), then stained with 0.1% Coomassie Brilliant Blue R-250, followed by destaining in 10% (v/v) acetic acid/30% (v/v) methanol in water. Gelatinolytic activity was detected as unstained bands on a blue background.
The effect of the PCK3145 derivative (SEQ ID NO.:7) on MMP extracellular levels was thus assessed by gelatin-zymography in the conditioned media of serum-starved HUVEC. After 16 hours of starvation, HUVEC were stimulated with VEGF in the presence or not of the PCK3145 derivative. […]

The subject of another test is HUVEC. Description: HUVEC migration assay (modified Boyden chambers, gelatin-coated filters). The class given is cell-based, Human. The procedure: Migration Assays. Transwells filters (8-μm pore size; Costar, Cambridge, Mass.) were pre-coated with 0.5% gelatin/PBS for 24 h at 4° C. The transwells were then washed with PBS and assembled in 24-well plates. The upper chamber of each transwell was filled with 100 μl of HUVEC (1×10^6 cells/ml) and cells were allowed to adhere for 1 h. Cells were then treated for 2 h by adding 100 μl of 2-fold concentrated drug solution prepared in serum-free medium into the upper chamber and 600 μl of the drug solution into the lower chamber. Migration was initiated by adding VEGF (10 ng/ml), or S1P (1 μM) to the lower chamber. The plate was placed at 37° C. in 5% CO2/95% air for 4 h. Cells that had migrated to the lower surface of the filters were fixed with 10% formalin phosphate and stained with 0.1% Crystal Violet/20% (v/v) methanol. The migration was quantified using computer-assisted imaging and data are expressed as the average density of migrated cells per four fields (magnification×50).
Cells were plated onto gelatin-coated filters inserted in modified Boyden chemotactic chambers. The effect of PCK3145 on basal migration and on VEGF-induced migration was monitored by the number of cells that had migrated comparatively to untreated control cells. HUVEC were dislodged from the flasks by trypsinization, washed and resuspended in serum-free media. Cells were placed onto gelatin-coated filters inserted in chambers and incubated at 37° C., 5% CO2 for 30 min to allow adequate anchoring to the filters. The monolayers were then exposed to serum-free media containing PCK3145 (300 μg/ml) added within the upper and lower compartment of the chambers. After 2 h, VEGF (50 ng/ml) was added in the lower chamber as a chemoattractant. Cell migration was allowed to proceed for another 3 h. Filters were then fixed, stained, and the migrated cells quantified by microscopy as described in the Methods section. […] The effect of. PCK on S1P-induced HUVEC migration was also measured, but no inhibition was observed (not shown) in this particular assay.

The test system of the next test is ERK. Description: Intrinsic effect on ERK phosphorylation (Western blot). The class given is cell-based. The procedure: The induction of the MAPK pathway by the PCK3145 derivative is further confirmed by the rapid and transient induction of ERK phosphorylation between 5-10 minutes (FIG. 8B) and is shown to be dose-dependent (FIG. 8C). Finally, the effects of the PCK3145 derivative were also compared to those of a scrambled peptide.
For orientation: Immunoblotting shows a protein as a band on a membrane.

With “EWQTDNCETCTCYET (cysteine pairing not given here) [PCK3145 derivative, PCK3145 derivative with acetylaminomethyl groups on the three cysteines]”, the “MMP-9 secreted in the cell culture media (zymography)” value with MMP-9 is reported as “dose-dependent reduction”. In addition, the “inhibition of VEGF-induced proMMP-2 secretion” value in the test with proMMP-2 (HUVEC, 300 μg/ml) is “approximately 50%”. The “downregulation of basal proMMP-2 levels in the extracellular media” value in the test with proMMP-2 (serum-starved HUVEC, 24 hours treatment) is listed as “approximately 35%”. Further, in the test with HUVEC, the “S1P-induced HUVEC migration” value was “no inhibition”. Also, the “induction of ERK phosphorylation, dose dependence” value in the test with ERK (dose-response) is reported as “dose-dependent”. Further, the “time of rapid and transient induction of ERK phosphorylation” value in the test with ERK (time-course) is 5 to 10 min.
